How the values were obtained:
EML cells = assay: GFP transfection of EML cells by nucleofection, FACS; format: cell-based, mouse; settings: FIG. 2B; for GFP expression when ATP in the E-PAP reaction was replaced by ATP analog: without tail extension
Procedure: Electroporation was performed using an Amaxa NUCLEOFECTOR™-II (Amaxa Biosystems, Cologne, Germany) in accordance with manufacturer recommendations. Jurkat and B cell lines were transfected using NUCLEOFECTOR™-II solution V and the set of recommended regimes for electroporation. EML cells were transfected using solutions V, T and R and different regimes of electroporation. T lymphocytes were transfected using T cell NUCLEOFECTOR™-II solution and different regimes of electroporation. Alternative methods of nucleic acids delivery were also used: cationic liposome mediated transfection was performed using LIPOFECTIN® or LIPOFECTAMIN® (Invitrogen). Electroporation was also performed with the ECM 830 (BTX) (Harvard Instruments, Boston, Mass.) or the Gene Pulser II (BioRad, Denver, Colo.), Multiporator (Eppendorf, Hamburg Germany). All procedures were performed as directed by the manufacturers. pmaxGFP plasmid DNA (Amaxa Biosystems) was used as the DNA control. The efficiency of transfection (ET) was determined 18h after transfection by fluorescence activated cell sorting (FACS). In some experiments transfectants were further analyzed each 24h until GFP could not longer be detected. Cell viability was determined by trypan blue dye exclusion.
Flow cytometry was performed using the fluorescent activated cell sorting (FACS®) assay. Flow cytometry was performed on cell subpopulations was performed at the Yale Cancer Center Flow Cytometry Shared Resource, using a FACS® Calibur flow cytometer (Becton-Dickinson, San Jose, Calif.) equipped with 488 nm laser and the standard filter setup. Fluorescence signals were collected on a logarithmic scale. A minimum of ten thousand cells were interrogated for each sample. Analysis of data was performed using FlowJo software (Tree Star, Inc., San Carlos, Calif.). The expression efficiency was calculated as the difference between the geometric mean of fluorescence of the transfectants and control (mock transfected) cells. […]

[1] = tested on: mantle cell lymphoma (MCL) cell lines; assay: Viability of MCL cell lines, CELLTITER-GLO assay; format: cell-based
Description: FIG. 13 is a line graph showing viability (percent) of various mantle cell lymphoma (MCL) cancer cell lines (SP-53, SP-49, Granta, JEKO, and TVM) following treatment with various concentrations (M) of the BH3 mimetic ABT-737.
FIGS. 14A-14D are plots showing viability (Relative Light Units) following a CELLTITER-GLO® assay of various mantle cell lymphoma (MCL) cancer cell lines: JVM-2 (FIG. 14A), Granta-519 (FIG. 14B), JEKO-1 (FIG. 14C), and SP-53 (FIG. 14D) following treatment with various concentrations (M) of the BH3 mimetic BIM SAHB (-▪-), or a BIM SAHB R153D variant control (-●-).
A panel of mantle cell lymphoma (MCL) cell lines were exposed to BIM SAHBA, BIM SAHBA(R153D), or vehicle alone for 24 hours in OptiMEM medium followed by viability testing using the CELLTITER-GLO® (Promega) assay.

GFP mRNA = assay: siRNA inhibition of GFP mRNA expression in Jurkat cells; format: cell-based; settings: Jurkat cells with EGFP mRNA; the day after transfection
Description: Jurkat T cells were electroporated with different amount of FITC labeled siRNA. The condition and the kinetics of siRNA transfection were identical to mRNA transfection.

metastatic melanoma = settings: cited from earlier work
caspase 3/7 = assay: Caspase 3/7 activation in MCL cell lines; format: cell-based; settings: JVM-2, Granta-519, JEKO-1, SP-53
Description: FIGS. 15A-15D are plots showing caspase 3/7 activation (Relative Light Units) in various mantle cell lymphoma (MCL) cancer cell lines: JVM-2 (FIG. 15A), Granta-519 (FIG. 15B), JEKO-1 (FIG. 15C), and SP-53 (FIG. 15D) following treatment with various concentrations (μM) of the BH3 mimetic SAHB (right hand bar in each pair), or a SAHB R153D variant control (left hand bar in each pair).

Nc1ncnc2c1nnn2[C@@H]1O[C@H](CO)[C@@H](O)[C@H]1O [8-azaadenosine]
GFP expression when ATP in the E-PAP reaction was replaced by ATP analog (EML cells): increased

CN(C)CC[C@H](CSc1ccccc1)Nc1ccc(S(=O)(=O)NC(=O)c2ccc(N3CCN(Cc4ccccc4-c4ccc(Cl)cc4)CC3)cc2)cc1[N+](=O)[O-] [ABT-737]
effect on viability ([1]; FIG. 13, SP-53, SP-49, Granta, JEKO, JVM): reduced viability in a subset of the MCL cell lines

CO[C@H]1[C@@H](O)[C@H](n2c[n+](C)c3c(=O)[nH]c(N)nc32)O[C@@H]1COP(=O)(O)OP(=O)(O)OP(=O)(O)OC[C@H]1O[C@@H](n2cnc3c(=O)[nH]c(N)nc32)[C@H](O)[C@@H]1O [ARCA, 3′-O-Methyl-m7G[5′]ppp[5′]G]
increase of GFP expression compared to the standard capping procedure (EML cells; GFP mRNA capped with ARCA): two-fold increase

Nc1ncnc2c1ncn2[C@@H]1O[C@H](CO)C[C@H]1O [cordycepin]
GFP expression when ATP in the E-PAP reaction was replaced by ATP analog (EML cells): increased

anti-GFP siRNA: anti-GFP siRNA (GCAAGCUGACCCUGAAGUUCAU) (chemistry not given here)
inhibition of GFP mRNA expression (GFP mRNA): 80%

nivolumab: anti-PD-1 antibody
overall response rate (metastatic melanoma): 30-40%

synthetic peptide modeled on the BIM BH3 death domain with all-hydrocarbon crosslink; IWIAQELRXIGDXFNAYYARR (SEQ ID NO:1) [BIM SAHBA]
EC50s, impaired viability ([1]; 24 hours, OptiMEM medium, panel of MCL cell lines): low micromolar range | caspase 3/7 activation (caspase 3/7): correlated with caspase 3/7 activation

— patent publication US10155038B2, “Cells prepared by transient transfection and methods of use thereof” (Yale University, priority 2007, dated 2018)
